According to article PMC7157763, “Synergy between Cell Surface Glycosidases and Glycan-Binding Proteins Dictates the Utilization of Specific Beta(1,3)-Glucans by Human Gut Bacteroides” (mBio, 2020):

Legend:
BuGH3 [1] = target: T1, BuGH3 (Bacteroides uniformis, UniProt A0ABC9NEJ2); assay: continuous glucose release assay (hexokinase kit); format: biochemical; conditions: oligosaccharide hydrolysis, exo-acting
T1 construct: gene BACUNI_01484; signal peptide and lipidation Cys excluded; N-terminal His6 tag (pET28a); E. coli BL21(DE3)
T1 sequence (A0ABC9NEJ2 20-750): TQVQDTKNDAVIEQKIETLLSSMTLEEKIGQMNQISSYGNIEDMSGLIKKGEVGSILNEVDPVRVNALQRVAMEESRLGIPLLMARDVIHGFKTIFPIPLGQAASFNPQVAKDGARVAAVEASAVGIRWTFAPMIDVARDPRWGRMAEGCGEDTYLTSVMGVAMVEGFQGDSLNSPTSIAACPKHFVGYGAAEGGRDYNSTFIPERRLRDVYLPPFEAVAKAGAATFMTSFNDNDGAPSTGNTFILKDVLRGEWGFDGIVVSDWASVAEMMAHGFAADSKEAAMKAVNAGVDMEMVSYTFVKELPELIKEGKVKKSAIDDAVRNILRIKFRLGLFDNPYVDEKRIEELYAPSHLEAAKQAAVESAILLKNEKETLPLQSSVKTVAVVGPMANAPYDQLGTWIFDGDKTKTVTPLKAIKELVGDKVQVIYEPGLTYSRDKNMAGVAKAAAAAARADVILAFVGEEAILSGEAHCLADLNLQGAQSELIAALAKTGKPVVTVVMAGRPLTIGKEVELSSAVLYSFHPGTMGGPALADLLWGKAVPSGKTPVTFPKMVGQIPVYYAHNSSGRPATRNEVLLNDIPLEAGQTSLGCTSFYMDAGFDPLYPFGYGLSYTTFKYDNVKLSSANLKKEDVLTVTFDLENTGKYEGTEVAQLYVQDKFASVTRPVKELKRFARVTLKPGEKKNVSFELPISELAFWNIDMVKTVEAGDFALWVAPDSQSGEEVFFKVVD

BuSGBP-B = target: T2, BuSGBP-B (Bacteroides uniformis, UniProt A0ABC9NE57); assay: isothermal titration calorimetry; format: binding; conditions: 25 °C; single-site model
T2 construct: gene BACUNI_01487; signal peptide and lipidation Cys excluded; N-terminal His6 or His6-GST tag (pMCSG53 or pMCSG-GST); E. coli BL21(DE3)
T2 sequence (A0ABC9NE57 22-457): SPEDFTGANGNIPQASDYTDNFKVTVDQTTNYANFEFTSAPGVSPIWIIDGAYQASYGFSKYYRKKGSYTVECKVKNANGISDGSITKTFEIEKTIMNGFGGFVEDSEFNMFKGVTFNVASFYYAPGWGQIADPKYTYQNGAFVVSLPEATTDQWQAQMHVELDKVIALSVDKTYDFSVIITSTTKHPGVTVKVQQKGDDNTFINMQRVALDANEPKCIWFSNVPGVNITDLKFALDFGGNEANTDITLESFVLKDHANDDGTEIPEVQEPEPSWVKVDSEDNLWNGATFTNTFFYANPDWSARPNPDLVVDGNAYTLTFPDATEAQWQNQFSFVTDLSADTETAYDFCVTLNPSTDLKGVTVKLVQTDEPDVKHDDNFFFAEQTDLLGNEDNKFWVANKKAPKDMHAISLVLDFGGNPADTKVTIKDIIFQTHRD

BuGH158 = target: T3, BuGH158 (Bacteroides uniformis, UniProt A0ABC9NDZ5); assay: 1H-NMR of hydrolysis (anomer stereochemistry); format: biochemical; conditions: 50 mM sodium phosphate pH 7.0 in D2O; 20 μM enzyme, 10 mM substrate; retaining
T3 construct: gene BACUNI_01485; signal peptide and lipidation Cys excluded; N-terminal His6 tag (pMCSG53); E. coli BL21(DE3)
T3 sequence (A0ABC9NDZ5 19-429 limits assumed): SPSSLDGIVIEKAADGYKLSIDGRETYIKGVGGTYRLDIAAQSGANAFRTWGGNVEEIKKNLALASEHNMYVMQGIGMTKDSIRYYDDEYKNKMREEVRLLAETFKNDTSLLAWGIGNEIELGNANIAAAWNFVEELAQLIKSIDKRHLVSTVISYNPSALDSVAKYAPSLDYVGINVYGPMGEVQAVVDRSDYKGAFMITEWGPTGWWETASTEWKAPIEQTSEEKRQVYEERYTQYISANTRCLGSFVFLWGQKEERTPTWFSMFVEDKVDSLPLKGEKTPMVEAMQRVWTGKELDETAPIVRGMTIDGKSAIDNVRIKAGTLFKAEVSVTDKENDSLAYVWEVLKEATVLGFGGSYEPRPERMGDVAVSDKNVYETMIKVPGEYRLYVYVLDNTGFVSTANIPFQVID

BuGH3 [2] = target: T1, BuGH3; assay: continuous glucose release assay (hexokinase kit); format: biochemical; conditions: oligosaccharide hydrolysis, exo-acting; remark: listed apart in the source

| SMILES | Km (BuGH3 [1]) | Ka (BuSGBP-B) | 1H-NMR of hydrolysis (anomer stereochemistry) (BuGH158) | kcat/Km (BuGH3 [2]) |
| --- | --- | --- | --- | --- |
| OC[C@H]1O[C@@H](O[C@@H]2[C@@H](O)[C@H](O[C@@H]3[C@@H](O)[C@H](O[C@@H]4[C@@H](O)[C@H](O[C@H]5[C@H](O)[C@@H](CO)OC(O)[C@@H]5O)O[C@H](CO)[C@H]4O)O[C@H](CO)[C@H]3O)O[C@H](CO)[C@H]2O)[C@H](O)[C@@H](O)[C@@H]1O (stereo partly shown) [G3G3G3G3G, laminaripentaose] | after which Km values leveled off | affinity increased with degree of polymerization |  |  |
| OC[C@H]1O[C@@H](O[C@@H]2[C@@H](O)[C@H](O[C@@H]3[C@@H](O)[C@H](O[C@H]4[C@H](O)[C@@H](CO)OC(O)[C@@H]4O)O[C@H](CO)[C@H]3O)O[C@H](CO)[C@H]2O)[C@H](O)[C@@H](O)[C@@H]1O (stereo partly shown) [G3G3G3G, laminaritetraose] | after which Km values leveled off | affinity increased with degree of polymerization |  |  |
| OC[C@H]1O[C@@H](O[C@@H]2[C@@H](O)[C@H](O[C@H]3[C@H](O)[C@@H](CO)OC(O)[C@@H]3O)O[C@H](CO)[C@H]2O)[C@H](O)[C@@H](O)[C@@H]1O (stereo partly shown) [G3G3G, laminaritriose] | Km values decreased between the di- and trisaccharide | The smallest laminari-oligosaccharide bound by BuSGBP-B was the trisaccharide (G3G3G) |  |  |
| OC[C@H]1O[C@@H](O[C@H]2[C@H](O)[C@@H](CO)OC(O)[C@@H]2O)[C@H](O)[C@@H](O)[C@@H]1O (stereo partly shown) [G3G, laminaribiose] | Km values decreased between the di- and trisaccharide |  |  |  |
| O=[N+]([O-])c1ccc(O[C@@H]2O[C@H](CO)[C@@H](O)[C@H](O[C@@H]3O[C@H](CO)[C@@H](O)[C@H](O)[C@H]3O)[C@H]2O)c(Cl)c1 [G3G-CNP, 2-chloro-4-nitrophenyl laminaribioside] |  |  | NMR analysis of the hydrolysis of 2-chloro-4-nitrophenyl laminaribioside (G3G-CNP) |  |
| OC[C@H]1O[C@@H](O[C@H]2[C@H](O)[C@@H](O)C(O)O[C@@H]2CO)[C@H](O)[C@@H](O)[C@@H]1O (stereo partly shown) [G4G, cellobiose] |  |  |  | kcat/Km value for laminaribiose (G3G) over cellobiose (G4G) and gentiobiose (G6G) |
| OC[C@H]1O[C@@H](OC[C@H]2OC(O)[C@H](O)[C@@H](O)[C@@H]2O)[C@H](O)[C@@H](O)[C@@H]1O (stereo partly shown) [G6G, gentiobiose] |  |  |  | kcat/Km value for laminaribiose (G3G) over cellobiose (G4G) and gentiobiose (G6G) |
